{"source": "patent US11207379B2", "about": "“Peptides with anti-cancer activity” (IDP DISCOVERY PHARMA, S.L., priority 2016, dated 2021)", "assay_type_in_all_cases": "cell-based", "key": {"[1]": {"biological_target": "MCF-7, epithelial (breast cancer)", "experiment": "Viability assay (MTT, Alamar Blue, hexosaminidase), 72 h", "conditions": "MCF7 cells, read-out: EC50", "description": "MCF-7, epithelial (breast cancer), ECACC: 86012803\n(§1) Cell lines A549, MCF-7 and RAMOS were cultured in incubator under CO2 (6%) at 37° C. in DMEM high glucose (Dulbecco's Modified Eagle Solution, Gibco-BRL 31966-21) medium with 10% fetal bovine serum inactivated (FBS) (Gibco-BRL 10106-169). Cell lines HL-60 and MM.1S were cultured in incubator at 37° C. in RPMI-1640 (Sigma R8758) medium with 10% of fetal bovine serum inactivated (FBS) and 2 mM glutamine (Sigma G7513). Cell lines BJ were cultured in incubator under CO2 (6%) at 37° C. in Eagle's Minimum Essential Medium (Sigma, M-2279) with 10% fetal bovine serum inactivated (FBS) (Gibco-BRL 10106-169).\n(§2) During the amplification step and the assays adherent cells were rinsed with DPBS (Dulbecco's Phosphate Buffered Saline, Sigma D1283) three times and afterward treated for 5 minutes with trypsin ([…]) (Gibco-BRL, 15400054) in solution of DPBS at 37° C., and, once detached, transferred in the culturing medium. No-adherent cells were centrifuged and transferred in the culturing medium. Cells were counted in a Neubauer chamber after labelling with Tripan-Blue.\n(§3) A549, MCF-7 and JB cells were seeded at a density of 5000 cells/well and HL-60, MM.1S and Ramos at 10000 cells/well in 100 μl of medium in 96 well plates. After 24 h, the compounds to be tested were added to calculate the dose/response curve at the starting concentration of 100 μM with serial dilutions (1:1). Controls are the untreated cells. Each experiment was performed in triplicate.\n(§4) Cells were incubated during 72 h in incubator under CO2 atmosphere at 37° C. Cell viability was measured by means of MTT (3-(4,5-dimethylthiazol-2-yl)-2.5-diphenyltetrazolium bromide) assay, Alamar Blue® (Biosource DAL1100) and Hexosaminidase activity test, consecutively, following manufacturer instructions.\n(§5) MTT: 1. Stock solution of MTT (475989 Calbiochem) was 5 mg/ml in PBS 1×. As negative control (experiment noise) 3 wells were treated with 20 μl/well of a solution of SDS 10% in H2O. The same control was used for Alamar Blue/Hexosaminidase. 10 μl/well of MTT solution were added and the plate was incubated for 3-4 hr. The medium was discarded and 100 μl of extracting buffer (PBS 1×, 15% SDS, 50% […] N,N-Dimethylformamide, pH 4.7) were added to each well. Plates were incubated for 16 h at room temperature under orbital shaking. Absorbance at 570 nm was finally measured.\n(§6) Alamar Blue: 10 μl Alamar Blue solution was added to each well and the plates were incubated for […] in the incubator. Fluorescence ratio at 535/590 (excitation/emission) was measured in Cytofluor (Millipore) fluorimeter. Blank control was determined by lysis of untreated cells with con 2% of Triton X100, right before adding Alamar Blue solution.\n(§7) Hexosaminidase activity test: after Alamar Blue lecture, medium was discarded and plates were rinsed once with PBS. 60 μl hexosaminidase substrate (p-nitrophenol-N-acetyl-beta-D-glucosamide 7.5 mM [Sigma N-9376], sodium citrate 0.1 M, pH 5.0, 0.25% Triton X-100) was added to each well and the plates were incubated at 37° C. for 2-5 h, according to the cell type (hexosaminidase activity changes according to the cell type). […] Blank control was the same as described before.\n(§8) Data analysis was performed calculating the percentage of cell viability normalized vs. the values of negative control, which was considered equal to 100%. The dose/response curve was fitted through the sigmoidal equation dose-response (variable slope) and the EC50 values were calculated as follow: Y=Bottom+(Top−Bottom)/(1+10^{[(Log EC50−X)*HillSlope]},"}, "[2]": {"biological_target": "MM.1S, B Lymphoblast (multiple myeloma)", "experiment": "Viability assay (MTT, Alamar Blue, hexosaminidase), 72 h", "conditions": "MM.1S cells, read-out: EC50", "description": "MM.1S, B Lymphoblast (multiple myeloma), ATCC: CRL-2974\nas §1, §2, §3, §4, §5, §6, §7, §8"}, "[3]": {"biological_target": "HL-60, promyeloblast (acute myelocytic leukemia, AML)", "experiment": "Viability assay (MTT, Alamar Blue, hexosaminidase), 72 h", "conditions": "HL-60 cells, read-out: EC50", "description": "HL-60, promyeloblast (acute myelocytic leukemia, AML), ECACC: 98070106\nas §1, §2, §3, §4, §5, §6, §7, §8"}, "[4]": {"system": "JB healthy cells (BJ, fibroblast, normal skin)", "experiment": "Viability assay (MTT, Alamar Blue, hexosaminidase), 72 h", "description": "BJ, fibroblast (normal skin), ATCC® CRL-2522™\nas §1\nas §2, with “No-adherent cells were centrifuged and transferred in the culturing medium.” left out, “Tripan-Blue. […]” for “Tripan-Blue.”\nas §4, with “instructions. […]” for “instructions.”"}, "[5]": {"biological_target": "A549, epithelial (lung cancer)", "experiment": "Viability assay (MTT, Alamar Blue, hexosaminidase), 72 h", "conditions": "A549 cells, read-out: EC50", "description": "A549, epithelial (lung cancer), ATCC:CCL-185\nas §1, §2, §3, §4, §5, §6, §7, §8"}, "A549 cells": {"system": "A549 cells", "experiment": "Annexin V assay by flow cytometry", "description": "(§9) Miltenyi Biotec Annexin V-FITC Kit was used. To detect apoptosis in early stage Phosphatidylserine in plasmatic membrane localization was measured, though the calcium dependent reaction with Annexine V. Annexin V molecules were labelled with different fluorophores (FITC) and analyzed by FACS. To detect apoptosis in late stage DNA-intercalating agents, such Propidium iodide (PI) were used.\nCells were seeded at a density range of 150000-30000 cells/well in 12 wells plates, and incubated at 37° C. in the incubator under CO2 atmosphere. After 24 h, […] A549, HL-60 and MM.1S, at IC30 and/or IC80, with compounds IDP-S09 and IL-09, in cell lines HL-60 and MM.1S with compound IDP-S04 and in cell line A549 with compounds IDP-S02 and IDP-S03. Staurosporine and compound 100258-F4 (Sigma) were used as positive control and reference compound, respectively."}, "[6]": {"biological_target": "RAMOS, B lymphocyte (Burkitt's Lymphoma)", "experiment": "Viability assay (MTT, Alamar Blue, hexosaminidase), 72 h", "conditions": "Ramos cells, read-out: EC50", "description": "RAMOS, B lymphocyte (Burkitt's Lymphoma), ATCC: CRL-1596\nas §1, §2, §3, §4, §5, §6, §7, §8"}, "HL-60 cells": {"system": "HL-60 cells", "experiment": "Annexin V assay by flow cytometry", "conditions": "for Percentage of HL-60 gated cells (positive to Annexin V): compound at EC30, control = 100%", "description": "as §9\n(§10) Cells were seeded at a density range of 150000-30000 cells/well in 12 wells plates, and incubated at 37° C. in the incubator under CO2 atmosphere. After 24 h, treatments at 4 h, 8 h, 18 h, 48 h and 72 h were performed in cell lines A549, HL-60 and MM.1S, at IC30 and/or IC80, with compounds IDP-S09 and IL-09, in cell lines HL-60 and MM.1S with compound IDP-S04 and in cell line A549 with compounds IDP-S02 and IDP-S03. Staurosporine and compound 100258-F4 (Sigma) were used as positive control and reference compound, respectively."}, "MM.1S cells": {"system": "MM.1S cells", "experiment": "Annexin V assay by flow cytometry", "description": "as §9, §10"}, "[7]": {"conditions": "4 h, compound at EC30, control = 100%"}, "[8]": {"conditions": "4 h, compound at EC80, control = 100%"}}, "note": "Numbered stars: 1 amine (or outer) side, 2 acyl side, 3 side chain; on linkers, the order of the positions; unused ones are H or OH. Peptide text beside a SMILES is read from it. Suc = O=C(CCC(=O)[*:2])[*:1]", "data": [{"smiles": "CC[C@H](C)[C@H](NC(=O)[C@H](Cc1ccc(O)cc1)NC(=O)[C@H](C)NC(=O)[C@H](CC(C)C)NC(=O)[C@H](C)NC(=O)[C@H](CCCCN)NC(=O)[C@H](CCCCN)NC(=O)[C@H](Cc1ccccc1)NC(=O)[C@@H](NC(=O)[C@@H](NC(=O)[C@@H](NC(=O)[C@H](CCCCN)NC(=O)[C@@H]1CCCN1C(=O)[C@H](C)NC(=O)[C@H](CCCNC(=N)N)NC(=O)[C@H](CCCNC(=N)N)NC(=O)[C@H](CCCNC(=N)N)NC(=O)[C@H](CCCNC(=N)N)NC(=O)[C@H](CCCNC(=N)N)NC(=O)[C@H](CCCNC(=N)N)NC(=O)[C@H](CCCNC(=N)N)NC(=O)CCC(=O)O)[C@@H](C)CC)C(C)C)[C@@H](C)CC)C(N)=O", "note": "[IDP-L09] (Suc-RRRRRRRAPKIVIFKKALAYI-NH2)", "values": [{"measurement": "EC50", "setting": "[1]", "value": "~28", "unit": "µM"}, {"measurement": "EC50", "setting": "[2]", "value": "25 ± 1", "unit": "µM"}, {"measurement": "EC50", "setting": "[3]", "value": "46 ± 6", "unit": "µM"}, {"measurement": "EC50", "setting": "[4]", "value": "> 100", "unit": "µM"}, {"measurement": "EC50", "setting": "[5]", "value": "48 ± 5", "unit": "µM"}, {"measurement": "Percentage of A549 gated cells (positive to Annexin V)", "setting": "A549 cells; [7]", "value": 900, "unit": "%"}, {"measurement": "Percentage of A549 gated cells (positive to Annexin V)", "setting": "A549 cells; [8]", "value": 2400, "unit": "%"}, {"measurement": "Percentage of A549 gated cells (positive to Annexin V)", "setting": "A549 cells; 16 h, compound at EC30, control = 100%", "value": 400, "unit": "%"}, {"measurement": "Percentage of A549 gated cells (positive to Annexin V)", "setting": "A549 cells; 16 h, compound at EC80, control = 100%", "value": 950, "unit": "%"}, {"measurement": "apoptosis induction (Annexin V by FACS), in words", "setting": "A549 cells; A549 cells", "value": "fast induction (4 h) is observed"}, {"measurement": "EC50", "setting": "[6]", "value": "28 ± 1", "unit": "µM"}, {"measurement": "Percentage of HL-60 gated cells (positive to Annexin V)", "setting": "HL-60 cells; 48 h", "value": 590, "unit": "%"}, {"measurement": "Percentage of HL-60 gated cells (positive to Annexin V)", "setting": "HL-60 cells; 72 h", "value": 230, "unit": "%"}, {"measurement": "apoptosis induction (Annexin V by FACS), in words", "setting": "HL-60 cells; HL-60 cells", "value": "apoptosis induction is significant after 48 h and 72 h at low concentrations (IC30)"}, {"measurement": "Percentage of MM.1S gated cells (positive to Annexin V)", "setting": "MM.1S cells; [7]", "value": 50, "unit": "%"}, {"measurement": "Percentage of MM.1S gated cells (positive to Annexin V)", "setting": "MM.1S cells; [8]", "value": 50, "unit": "%"}, {"measurement": "Percentage of MM.1S gated cells (positive to Annexin V)", "setting": "MM.1S cells; 8 h, compound at EC30, control = 100%", "value": 220, "unit": "%"}, {"measurement": "Percentage of MM.1S gated cells (positive to Annexin V)", "setting": "MM.1S cells; 8 h, compound at EC80, control = 100%", "value": 310, "unit": "%"}, {"measurement": "Percentage of MM.1S gated cells (positive to Annexin V)", "setting": "MM.1S cells; 48 h, compound at EC30, control = 100%", "value": 190, "unit": "%"}, {"measurement": "Percentage of MM.1S gated cells (positive to Annexin V)", "setting": "MM.1S cells; 72 h, compound at EC30, control = 100%", "value": 500, "unit": "%"}, {"measurement": "apoptosis induction (Annexin V by FACS), in words", "setting": "MM.1S cells; MM.1S cells", "value": "induces apoptosis at 8 h, 48 h and 72 h at low concentration (IC30) and at 8 h at high concentration (IC80)"}]}]}
